# “Also recorded” adds a separate entry of the source. Read-outs that look alike come from different tables or passages of the source.
# Key:
# HepG2 Cells = test: Cell Viability Assay in HepG2 Cells at 72 h; assay type: cell-based, human; settings: Homo sapiens, HepG2, 72 h
# Experimental: The liver plays a central role in transforming and clearing chemicals, and therefore is susceptible to toxicity of these agents. BNS808, BNS822 and other selected compounds were tested in the HepG2 assay using […] to evaluate cytotoxicity.
# [1] = Tissue distribution: brain, plasma and liver levels after oral dosing; assay type: in vivo, C57BL/6J mice
# Experimental: Tissue distribution and pharmacokinetics: Tissue levels of antagonist: 3 male C57BL/6J mice (7-9 weeks, PO group) were used in this study. Mice were fasted prior to administration of test article and had access to food 4 hours post dosing. Appropriate amount of test article was accurately weighted and mixed with the appropriate volume of vehicle to get a clear oral solution. The formulation was prepared on the day of dosing, and mice were dosed via oral gavage up to 4 hr after formulation was prepared. After 1 hour, mice were scarified and about 200 μL blood was collected from cardiac puncture followed by plasma preparation. Brain and liver were removed and further processed. Dose formulation and sample analysis was performed by LC-MS/MS method.
# The peripherality of selected BB8 conjugates (BNS) was evaluated in vivo measuring their respective brain, plasma, and liver levels 1 hr following 10 mg/kg oral administration.
# [2] = system: Salmonella typhimurium (TA98, TA100); settings: for increase in reversion over the negative control: TA98 and TA100, with and without S9
# [3] = system: DIO (Diet-Induced-Obese) mice; test: In vivo efficacy study in Diet Induced Obesity (DIO) model; parameters: species or system C57BL/6J mice
# Experimental: In vivo efficacy study in Diet Induced Obesity (DIO) model: Male C57BL/6J mice were kept on a high fat diet for 24 weeks. […] Thereafter, metabolic assessment was performed in order to evaluate the efficacy of the treatment. The efficacy was evaluated by measurements of the following parameters: • 1. Body weight and food intake, • 2. Total energy expenditure (TEE) and respiratory quotient (RQ). • 3. Fat and Carbohydrate oxidation (FO and CHO, respectively), • 4. Total ambulation, • 5. Glucose homeostasis, • 6. Hepatic Steatosis and Liver Injury, • 7. Lipid profile, • 8. Kidney function.
# Animals: The experimental protocol used is approved by the Institutional Animal Care and Use Committee of the Hebrew University. Male, 25 weeks old, C57BL/6J mice were purchased from Jackson laboratories. Mice were maintained under a 12-h light/dark cycle and fed ad libitum. To maintain diet-induced obesity, C57BL/6J mice were fed with high-fat diet (HFD) (60% of calories from fat, 20% from protein, and 20% from carbohydrates; Research Diet, D12492) for overall 30 weeks.
# […] Body weight and food intake were monitored daily. Total body fat and lean masses were determined by EchoMRI-100H™ (Echo Medical Systems LLC, Houston, TX, USA). 24 h urine was collected 2-4 days before euthanasia using mouse metabolic cages (CCS2000 Chiller System, Hatteras Instruments, NC, USA). At the end of the observation period, mice were euthanized by a cervical dislocation under anesthesia, the kidneys, liver, brain, spleen, fat, and pancreas were removed, and samples were fixed in buffered 4% formalin (for histopathological analysis) or snap frozen (for biochemistry analysis). Trunk blood was collected for determining the biochemical parameters.
# Multi-parameter metabolic assessment: Metabolic profile of the mice was assessed by using the Promethion High-Definition Behavioral Phenotyping System
# (Sable Instruments, Inc., Las Vegas, NV, USA). Data acquisition and instrument control were performed using MetaScreen software version 2.2.18.0, and the obtained raw data were processed using ExpeData version 1.8.4 using an analysis script detailing all aspects of data transformation. Mice with free access to food and water were subjected to a standard 12 hr light/12 hr dark cycle, which consisted of 48 hr acclimation period followed by 24 hr of sampling. Respiratory gases were measured by using the GA-3 gas analyzer (Sable Systems, Inc., Las Vegas, NV, USA) using a pull-mode, negative-pressure system. Air flow was measured and controlled by FR-8 (Sable Systems, Inc., Las Vegas, NV, USA), with a set flow rate of 2000 mL/min. Water vapor was continuously measured and its dilution effect on O2 and CO2 was mathematically compensated. Effective mass was calculated by [body mass]0.75. Fat oxidation (FO) and carbohydrate oxidation (CHO) were calculated as FO=1.69×VO2−1.69×VCO2 and CHO=4.57×VCO2−3.23×VO2 and expressed as g/d/kg^eff.Mass.
# (§1) Locomotor activity: Locomotor activity was quantified by the number of disruptions of infrared XYZ beam arrays with a beam spacing of 0.25 cm in the Promethion High-Definition Behavioral Phenotyping System (Sable Instruments, Inc., Las Vegas, NV, USA).
# Glucose tolerance (ipGTT) test and insulin sensitivity tests (ipIST): Mice that fasted overnight were injected with glucose (1.5 g/kg, IP), followed by a tail blood collection at 0, 15, 30, 45, 60, 90, 120 min. Blood glucose levels were determined using the Elite glucometer (Bayer, Pittsburgh, PA). Two days later, mice were fasted for 6 hr before receiving insulin (0.75 U/kg, IP; Eli Lilly, DC, USA or Actrapid® vial, novo nordisk A/S, Denmark), and blood glucose levels were determined at the same intervals.
# Creatinine clearance was calculated using urine and serum creatinine levels (CCr mL/h=Urine creatinine mg/dL×Urine volume/Serum creatinine mg/dL×24 hr). Fasting blood glucose was measured using the Elite glucometer (Bayer, Pittsburgh, PA). […]
# C57Bl/6J mice = test: Inhibition of HU210-induced hypomotility; assay type: in vivo; settings: HU210 30 μg/kg IP 30 min after
# Excerpt: as §1
# The ability of BNS822 and BNS808 to induce CNS-mediated hyperactivity was further evaluated in a mouse model, using rimonabant (a brain penetrant CB1 receptor blocker) as a positive control. Mice (wild-type male C57Bl/6J) received a single dose of rimonabant (10 mg/kg IP), BNS822 (20 mg/kg PO) BNS 808 (1, 10 mg/kg PO) or vehicle; ambulatory activity was measured by the Promethion Metabolic System (Sable Instruments, Inc). In the same experimental scheme, BNS822, BNS808 and rimonabant were further studied regarding the potential to inhibit the hypomotility-induced by a CB1 receptor agonist, HU210, after a single dose of rimonabant (10 mg/kg IP), BNS822 (20 mg/kg PO) BNS808 (1, 10 mg/kg PO) or vehicle and a single dose of HU210 (30 μg/kg IP) 30 min after.
# [4] = male, C57BL/6J, mouse, in vivo, po, 10 mg/kg
structure (smiles),measurement,setting,value
"O=S(=O)(NC1CCCOc2c1nn(-c1ccccc1Cl)c2-c1ccc(Cl)cc1)c1ccc(Cl)cc1 (stereo not drawn) [BNS808, 4-chloro-N-[2-(2-chlorophenyl)-3-(4-chlorophenyl)-5,6,7,8-tetrahydrooxepino[3,2-c]pyrazol-8-yl]benzenesulfonamide]",IC50,HepG2 Cells; read-out: Absolute IC50 (μM),26.2 µM
same,IC50,HepG2 Cells; read-out: Relative IC50 (μM),16.8 µM
same,Liver/Plasma ratio,"[1]; 1 h post 10 mg/kg oral administration, C57BL/6J male mice",13.0
same,Kp at 1 h,"[1]; mouse, in vivo, 1 h post 10 mg/kg oral administration, C57BL/6J male mice, read-out: Brain/Plasma ratio",1.07
same,toxicity on AMES strains,[2],no toxicity
same,AMES result (positive/negative),"[2]; TA98, S9 no",negative
same,AMES result (positive/negative),"[2]; TA98, S9 yes",negative
same,increase in reversion over the negative control,[2],< 2 fold
same,AMES result (positive/negative),"[2]; TA100, S9 no",negative
same,AMES result (positive/negative),"[2]; TA100, S9 yes",negative
same,reduction of the body weight,"[3]; 1 mg/kg daily PO, DIO mice on HFD, after 24 days",~15%
same,ambulatory activity,"[3]; 1 mg/kg/day continued PO, DIO mice",did not affect
same,effect on HU210-induced hypomotility,"C57Bl/6J mice; single dose 1, 10 mg/kg PO",apparent lack of effects
"Cc1ccc(C)c(OCCCC(C)(C)C(=O)NC2CCCOc3c2nn(-c2ccccc2Cl)c3-c2ccc(Cl)cc2)c1 (stereo not drawn) [BNS822, N-[2-(2-chlorophenyl)-3-(4-chlorophenyl)-5,6,7,8-tetrahydrooxepino[3,2-c]pyrazol-8-yl]-5-(2,5-dimethylphenoxy)-2,2-dimethyl-pentanamide]",IC50,HepG2 Cells; read-out: Absolute IC50,> 100 µM
same,IC50,HepG2 Cells; read-out: Relative IC50,> 100 µM
same,Kp at 1 h,[1]; [4],< 0.02
same,concentration at 1 h,[1]; [4],1.34 ng/g
same,Brain/Plasma ratio,"[1]; male, C57BL/6J, mouse, in vivo, po, 10 mg/kg, 1 h",<0.02
same,toxicity on AMES strains,[2],no toxicity
same,AMES result (positive/negative),"[2]; TA98, S9 no",negative
same,AMES result (positive/negative),"[2]; TA98, S9 yes",negative
same,increase in reversion over the negative control,[2],< 2 fold
same,AMES result (positive/negative),"[2]; TA100, S9 no",negative
same,AMES result (positive/negative),"[2]; TA100, S9 yes",negative
same,weight loss,"[3]; 20 mg/kg continued administration, DIO mice",20%
same,body weight,"[3]; 20 mg/kg/day PO, DIO mice",significantly reduced
same,food intake,"[3]; 20 mg/kg/day PO, DIO mice",significant decrease
same,circulating fed insulin (plasma) levels,"[3]; 20 mg/kg/day PO, DIO/HFD mice",significantly lower; also recorded: significant reductions
same,glucose levels in fed and fasting conditions,"[3]; 20 mg/kg/day PO, DIO/HFD mice",no change; also recorded: no significant changes
same,"glucose tolerance (GTT, AUC)","[3]; 20 mg/kg/day PO, DIO/HFD mice",improved; also recorded: significant reductions
same,insulin sensitivity (ITT),"[3]; 20 mg/kg/day PO, DIO/HFD mice",no improvement; also recorded: no significant changes
same,ALT levels,"[3]; 20 mg/kg/day PO, HFD mice",Significant reductions
same,fat vacuoles deposition in the liver,"[3]; 20 mg/kg/day PO, HFD mice",reduction
same,liver TG content,"[3]; 20 mg/kg/day PO, HFD mice",Significant reductions
same,liver cholesterol,"[3]; 20 mg/kg/day PO, HFD mice",not
same,effect on HU210-induced hypomotility,C57Bl/6J mice; single dose 20 mg/kg PO,apparent lack of effects
